Experimental data as given in patent publication US9174996B2, “Protein kinase inhibitors” (Astar Biotech LLC, priority 2012, dated 2015).

Assays:
[1] = target: Ba/F3 cells expressing BCR-ABL T315I (Homo sapiens, UniProt P00519, T315I, cells depend on it); experiment: MTT cell viability assay, Experiment 3; type: cell-based, murine; conditions: Mean ± S.E.M, two independent experiments, read-out: IC50 cell viability, Ba/F3 cells T315I BCR-ABL
Source text: (§1) This study evaluated the effect of the pure optical isomers on human leukemia cell viability in vitro. […] Two BCR-ABL-positive human leukemia cell lines, K562 and KU812, were used in this study. Besides, Ba/F3 cell transfectants expressing native or T315I BCR-ABL, whose viability is dependent on ectopically expressed BCR-ABL, were also used in this work. Ba/F3 cells expressing BCR-ABL^T315I were used for testing the efficiency of tested compounds on point mutation BCR-ABL^T315I, which cause drug resistance to Imatinib (Gleevec). U937 and JURKAT, two BCR-ABL-negative human leukemia cell lines, were employed to test the selectivity of tested compounds.
(§2) Cells were seeded in 24-well plates, and treated with drugs at corresponding concentrations. Cell viability was measured using a MTT (3-(4,5-dimethylthiazol-2-yl)-2,5-diphenyltetrazolium bromide)-based colorimetric assay with a 96-well plate reader. IC50 values were calculated using the mean of two independent experiments.

[2] = target: Ba/F3 cells expressing native BCR-ABL (Homo sapiens, UniProt P00519); experiment: MTT cell viability assay, Experiment 3; type: cell-based, murine; conditions: Mean ± S.E.M, two independent experiments, read-out: IC50 cell viability, Ba/F3 cells Native BCR-ABL
Source text: as §1, §2

JURKAT = experiment: MTT cell viability assay, Experiment 3; type: cell-based; conditions: Homo sapiens, MTT, Mean ± S.E.M, two independent experiments, read-out: IC50 cell viability, Non-CML leukemia cells JURKAT
Source text: (§3) This study evaluated the effect of the pure optical isomers on human leukemia cell viability in vitro. Ponatinib was used as the positive control. Two BCR-ABL-positive human leukemia cell lines, K562 and KU812, were used in this study. Besides, Ba/F3 cell transfectants expressing native or T315I BCR-ABL, whose viability is dependent on ectopically expressed BCR-ABL, were also used in this work. Ba/F3 cells expressing BCR-ABL^T315I were used for testing the efficiency of tested compounds on point mutation BCR-ABL^T315I, which cause drug resistance to Imatinib (Gleevec). U937 and JURKAT, two BCR-ABL-negative human leukemia cell lines, were employed to test the selectivity of tested compounds.
as §2

K562 = experiment: MTT cell viability assay, Experiment 3; type: cell-based; conditions: Homo sapiens, K562; MTT, Mean ± S.E.M, two independent experiments; read-out: IC50 cell viability, CML leukemia cells K562
Source text: as §3, §2

KU812 = experiment: MTT cell viability assay, Experiment 3; type: cell-based; conditions: Homo sapiens, KU812; MTT, Mean ± S.E.M, two independent experiments; read-out: IC50 cell viability, CML leukemia cells KU812
Source text: as §3, §2

U937 = experiment: MTT cell viability assay, Experiment 3; type: cell-based; conditions: Homo sapiens, U-937; MTT, Mean ± S.E.M, two independent experiments; read-out: IC50 cell viability, Non-CML leukemia cells U937
Source text: as §3, §2

K562 cells [3] = experiment: Cell death assay, Experiment 1 (live cells counted by trypan blue); type: cell-based; conditions: Homo sapiens, 100 nM, 48 hours, read-out: % live cells (vs control)
K562 cells [4] = experiment: Cell death assay, Experiment 2 (IC50, live cells counted by trypan blue); type: cell-based; conditions: Homo sapiens, 48 h
Method: K562 cells (2×10^5 cells/ml) were seeded in 24-well cell culture plate and treated with DMSO or agents. After treatment in the presence of DMSO or agents for 48 h, cells were collected by centrifuging at 500 g for 5 minutes, and then cells were resuspended in appropriate volume of PBS. 10 uL of cell suspension was mixed with 10 uL of trypan blue solution and live cells were counted by TC10 (Bio-Rad, Richmond, Calif.).

Compound	IC50 (JURKAT)	IC50 (K562)	IC50 (U937)	melting point	GI50 [1]	GI50 [2]	IC50 (KU812)	viability at 0.1 µM (K562 cells [3])	IC50 (K562 cells [4])
CN1CCN(C2CC(F)(F)c3cc(NC(=O)c4ccc(Cl)c(C#Cc5cnc6cccnn56)c4)ccc32)CC1 (racemic) [Compound 38, N-(1,1-difluoro-2,3-dihydro-3-(4-methylpiperazin-1-yl)-1H-indan-6-yl)-3-(2-(imidazo[1,2-b]pyridazin-3-yl)ethynyl)-4-chlorobenzamide]	> 1000 nM	0.8 ± 0.1 nM	> 1000 nM	140 to 142 °C	10.1 ± 0.7 nM	4.9 ± 2.1 nM	0.4 ± 0.1 nM		
Cc1cn(-c2ccc(NC(=O)c3ccc(C)c(C#Cc4cnc5cccnn45)c3)cc2C(F)(F)F)cn1 [Compound 30, 3-(2-(Imidazo[1,2-b]pyridazin-3-yl)ethynyl)-4-methyl-N-(4-(4-methyl-1H-imidazol-1-yl)-3-(trifluoromethyl)-phenyl)benzamide]				124 to 126 °C				12.6%	3.6 nM
Cc1ccc(C(=O)Nc2ccc(CN3CCN(C)CC3)c(C(F)(F)F)c2)cc1C#Cc1ccc(NC2CCC2)nn1 [Compound 13, 3-(2-(6-(Cyclobutylamino)pyridazin-3-yl)ethynyl)-4-methyl-N-(4-((4-methylpiperazin-1-yl)methyl)-3-(trifluoromethyl)phenyl)benzamide]				120 to 121 °C				8.9%	11 nM
Cc1ccc(C(=O)Nc2ccc(CN3CCN(C)CC3)c(C(F)(F)F)c2)cc1C#Cc1ccc(NC2CC2)nn1 [Compound 12, 3-(2-(6-(Cyclopropylamino)pyridazin-3-yl)ethynyl)-4-methyl-N-(4-((4-methylpiperazin-1-yl)methyl)-3-(trifluoromethyl)phenyl)benzamide]				68 to 69 °C				10.1%	4 nM
Cc1ccc(C(=O)Nc2ccc3c(c2)C(F)(F)C[C@H]3N2CCN(C)CC2)cc1C#Cc1cnc(NC2CC2)nc1 [37-(R), (R)-3-(2-(2-(Cyclopropylamino)pyrimidin-5-yl)ethynyl)-N-(1,1-difluoro-2,3-dihydro-3-(4-methylpiperazin-1-yl)-1H-indan-6-yl)-4-methylbenzamide]	400 ± 64.9 nM	10.4 ± 1.5 nM	465 ± 9.7 nM		> 100 nM	62.5 ± 6.9 nM	5.2 ± 0.2 nM		

The next lines start with results.

IC50 (JURKAT)	IC50 (K562)	IC50 (U937)	melting point	Compound	GI50 [1]	GI50 [2]	IC50 (KU812)	viability at 0.1 µM (K562 cells [3])	IC50 (K562 cells [4])
			114 to 115 °C	Cc1ccc(-c2nc3ccc(CN4CCN(C)CC4)cc3[nH]2)cc1C#Cc1cnc2cccnn12 [Compound 3, 3-(2-(2-Methyl-5-(6-((4-methylpiperazin-1-yl)methyl)-1H-benzo[d]imidazol-2-yl)phenyl)ethynyl)imidazo[1,2-b]pyridazine]				11.3%	3 nM
> 1000 nM	0.3 ± 0.2 nM	> 1000 nM		CN1CCN([C@H]2CC(F)(F)c3cc(NC(=O)c4ccc(F)c(C#Cc5cnc6cccnn56)c4)ccc32)CC1 (single isomer, unassigned) [39-(S)]	6.5 ± 1.2 nM	2.3 ± 0.5 nM	0.2 ± 0.1 nM		
> 1000 nM	3.6 ± 0.1 nM	> 1000 nM		Cc1ccc(C(=O)Nc2ccc3c(c2)C(F)(F)C[C@H]3N2CCN(C)CC2)cc1C#Cc1cnc2cccnn12 [36-(R), (R)—N-(1,1-difluoro-2,3-dihydro-3-(4-methylpiperazin-1-yl)-1H-indan-6-yl)-3-(2-(imidazo[1,2-b]pyridazin-3-yl)ethynyl)-4-methylbenzamide]	> 100 nM	31.2 ± 3.8 nM	2.7 ± 0.1 nM		
> 1000 nM	0.8 ± 0.2 nM	810 ± 39.2 nM	118 to 121 °C	CN1CCN(C2CC(F)(F)c3cc(NC(=O)c4ccc(F)c(C#Cc5cnc6cccnn56)c4)ccc32)CC1 (racemic) [Compound 39, N-(1,1-difluoro-2,3-dihydro-3-(4-methylpiperazin-1-yl)-1H-indan-6-yl)-3-(2-(imidazo[1,2-b]pyridazin-3-yl)ethynyl)-4-fluorobenzamide]	13 ± 0.9 nM	3.6 ± 0.7 nM	0.5 ± 0.3 nM		
